# Test results: US12427192B2, “Water soluble adjuvant and composition containing same” (Sumitomo Pharma Co., Ltd., priority 2019, dated 2025)
# Key:
# [1] = tested on: HLA-A*02:01 transgenic mouse; assay: Test 4: in vivo adjuvant activity, cocktail vaccine a, IFNγ ELISPOT
# Procedure: Evaluation of in vivo adjuvant activity in HLA-A*02:01 transgenic mouse
# The in vivo adjuvant activity of the compound of Example 1 and the compound of Reference example 12 was evaluated in the following procedure. To a cocktail vaccine comprising Compound of formula 4 prepared in Reference example 8 and Peptide SEQ ID No. 3 prepared in Reference example 3 with a preliminarily-emulsified composition (hereinafter, referred to as “cocktail vaccine a”) was added the compound prepared in Example 1 or the compound prepared in Reference example 12 respectively to prepare each vaccine. The vaccine was administered to a HLA-A*02:01 transgenic mouse, and the adjuvant activity of each vaccine was evaluated by the method of testing antigen-specific CTL induction.
# The RMFPNAPYL (SEQ ID No. 1) in Compound of formula 4 and the VLDFAPPGA (SEQ ID No. 4) in Peptide SEQ ID No. 3 correspond to antigen peptides derived from an HLA-A*02:01-restricted WT1 protein.
# HLA-A*02:01 transgenic mouse (C57BL/6CrHLA-A2.1DR1) lacks mouse MHC, and instead expresses a chimeric HLA of a human MHC (HLA-A*02:01) and a mouse MHC (H-2D^b), and HLA-DRB1*01:01. […]
# The character for inducing CTLs specific to the antigen peptide (SEQ ID No. 1 or SEQ ID No. 4) by cocktail vaccine a was evaluated by measuring whether IFNγ can be produced upon stimulation of splenocytes from the mouse with the corresponding peptide. […]
# [2] = tested on: HLA-A*02:01 transgenic mouse; assay: Test 18: in vivo adjuvant activity, cocktail vaccine m (liposome formulation 3), IFNγ ELISPOT; details: added to cocktail vaccine m (liposome formulation 3); 0.4 nmol per body, twice; FIG. 22
# Procedure: Evaluation of In Vivo Adjuvant Activity in HLA-A*02:01 Transgenic Mouse
# The in vivo adjuvant activity of the compound of Example 1 was evaluated in the following procedure. To a vaccine (liposome formulation 3) comprising Compound of formula 4 prepared in Reference example 8 and Peptide SEQ ID No. 3 prepared in Reference example 3 (hereinafter, referred to as “cocktail vaccine m”) was added the compound prepared in Example 1 to prepare a vaccine. The vaccine was administered to a HLA-A*02:01 transgenic mouse, and the adjuvant activity of the vaccine was evaluated by the method of testing antigen-specific CTL induction.
# For example, the above liposome formulation 3 was prepared as follows. 36.7 mg of 1,2-dipalmitoyl-sn-glycero-3-phosphocholine, 7.58 mg of 1,2-dipalmitoyl-sn-glycero-3-phospho-L-serine sodium salt, and 15.47 mg of cholesterol were dissolved in t-butyl alcohol/water mixture, and the mixture was lyophilized. […]
# Cocktail vaccine m was injected to mice intradermally at the tail base area in an amount for administering 500 μg of Compound of formula 4 per body and 375 μg of Peptide SEQ ID No. 3 per body. […] Then, after removal of the supernatant from the wells, stained spots on the ELISPOT plate were counted.
smiles,measurement,setting,value
"CCCCCNc1nc(N)nc(C)c1Cc1ccc(CN(C)CCOCCOCCOCCOCCO)cc1OC [Example 1, 1-(4-{[2-amino-4-methyl-6-(pentylamino)pyrimidin-5-yl]methyl}-3-methoxyphenyl)-2-methyl-5,8,11,14-tetraoxa-2-azahexadecan-16-ol·trifluoroacetate]",CTL counts responsive to Peptide of SEQ ID No. 1 or SEQ ID No. 4 compared with Reference example 12,"[1]; added to cocktail vaccine a, 32.5 ng Example 1 vs 22.5 ng Reference example 12 per body",more
same,induced CTL count on adding the compound to the vaccine,"[1]; cocktail vaccine a, 32.5 ng Example 1 per body",increases
same,CTL counts responsive to Peptide SEQ ID No. 1 compared with adding no compound,[2],more
